Reference: US20150272955A1, “Triazolo[4,5-D]Pyrimidine Compounds For Treatment Of Abdominal Aortic Aneurysms” (AstraZeneca AB, priority 2007, published 2015)
Entries after “also recorded” stand apart in the source; their conditions may differ.

What was measured:
[1] = system: experimental aortic aneurysms (decellularized guinea-pig aorta xenograft in rat aorta); assay: AAA model: external aneurysmal diameter after xenograft implantation; assay type: in vivo
Source text: (§1) Experimental aortic aneurysms were induced by implanting a segment of sodium dodecyl sulfate-decellularized guinea-pig aorta (xenogenic matrix) in rat aortas (Allaire E. et al. (1994), J Vasc Surg 19:446-456). This AAA model is characterized by immuno-inflammatory injury of the xenogeneic extracellular matrix (Allaire E et al. (1997), Surgery 122:73-81; Allaire E et al. (1996), Transplantation 62:794-803). Briefly, 46 male Lewis rats (250 g) and 46 guinea-pigs (280 g) (Iffa Credo, Lyon, France) were housed according to the principles of Laboratory Animal Care formulated by the European Union. Animals were anaesthetized by intraperitoneal injection of pentobarbital (5 mg/100 g body weight). Guinea-pig infrarenal aortas (1.5 cm) were sampled and decellularized by sodium dodecyl sulfate treatment to obtain tubes of intact extracellular matrix, which were orthotopically transplanted into the aorta of Lewis rats with 10/0 nylon interrupted sutures (xenograft) (Allaire et al., 1997; Allaire et al., 1996). The initial diameter of the graft was measured in situ, immediately after unclamping, under a binocular microscope. After 24 h, rats were randomly assigned to two equal groups, treated with Compound (A) (10 mg/kg body weight twice daily by oral administration) or with the diluent of Compound (A) (1% carboxymethylcellulose/0.1% Tween-80 in water) for 10 days (D10, n=9 for each group) or 6 weeks (D42, n=14 for each group). At sacrifice, rats were deeply anesthetized, the graft diameter was measured again, and the aorta was dissected out and fixed in 4% paraformaldehyde. Aortic samples were embedded in paraffin and cut at 5 μm.
(§2) Results are expressed as means±S.D. The percentage of diameter increase was calculated as follows: (diameter at harvest−diameter at grafting)×100/diameter at grafting. Comparisons between the two groups were made using the nonparametric Mann-Whitney U test (Statview, version 4.5). The frequency of aneurysms of large diameter in the different groups was analyzed by X^2 test. Simple regression analysis was used to test for correlations between various parameters. P<0.05 was considered significant.

[2] = system: experimental aortic aneurysms (mural thrombus and aneurysmal wall); assay: AAA model: histological and immunohistochemical analysis of aneurysm; assay type: in vivo, rat
Source text: as §1
Sections were stained with picro Sirius red to visualize collagen and fibrin and with orcein to visualize elastin. Immunohistochemistry was performed using anti-human α-actin (dilution 1:500, Dako, Trappes, France), anti-CD68 (macrophages, dilution 1:1000, Serotec, Cergy Saint-Christophe, France), anti-rat polymorphonuclear leukocytes (dilution 1:3000, Cedarlane, Ontario, Canada), anti-CD41 (integrin αIIb, platelets, dilution 1:50, Santa Cruz Biotechnologies) and anti-MMP-9 (dilution 1:50, Calbiochem, Darmstadt, Germany) as primary antibodies and a peroxidase Vector ABC kit for detection (Vector Labs, Burlingame, Calif., USA). Cells were counted with a grid in the microscope eyepiece and averaged in 4 symmetrical fields on the same slide. The size of the areas represented by thrombus, elastic fiber, AAA wall, and MMP-9- and CD41-positive staining were measured by morphometric analysis using Histolab software (Microvision Instruments, Evly, France). Thrombus areas were determined on Sirius red slides. The area occupied by positive staining was quantified by the color detecting mode of the computer program in the inner thrombus and outer wall.
as §2

[3] = Day 42, 10 mg/kg twice daily oral

SMILES: CCCSc1nc(N[C@@H]2C[C@H]2c2ccc(F)c(F)c2)c2nnn([C@@H]3C[C@H](OCCO)[C@@H](O)[C@H]3O)c2n1 (relative stereo) [Compound (A), {1S-[1α,2α,3β(1S*,2R*),5β]}-3-(7-{[2-(3,4-difluorophenyl)cyclopropyl]amino}-5-(propylthio)-3H-1,2,3-triazolo[4,5-d]pyrimidin-3-yl)-5-(2-hydroxyethoxyl)cyclopentane-1,2-diol]
- increase in aneurysmal diameter between Days 10 and 42 ([1]; 10 mg/kg twice daily oral): no increase in aneurysmal diameter was observed
- percent increase in external diameter vs control [1, 3]: significantly reduced
- incidence of larger aneurysms (diameter >4 mm) ([1]; Day 42, X^2=11.6, P<0.001): predominated in the control group
- increase in external aneurysmal diameter ([1]; male Lewis rats, 10 mg/kg twice daily oral, 10 days, n=9): 197.3±52.8%
- mean external aneurysmal diameter ([1]; male Lewis rats, 10 mg/kg twice daily oral, Day 10): 2.22±0.56 mm
- mean external aneurysmal diameter ([1]; male Lewis rats, 10 mg/kg twice daily oral, Day 42, n=14): 3.61±1.46 mm
- thrombus area/wall area ([2]; Day 10, 10 mg/kg twice daily oral): 0.07±0.05
- thrombus area/wall area [2, 3]: 0.35±0.44
- CD41-positive area (platelet marker) within the thrombus ([2]; Day 42, P=0.005 vs control): 0.13±0.16
- MMP-9-positive area in the thrombus and the wall ([2]; Day 42, immunostaining): markedly reduced
- slope (s) of correlation between thrombus area and aneurysm diameter ([2]; Day 42, intragroup analysis): 0.17
- infiltration of PMNs into the mural thrombus ([2]; Days 10 and 42): significantly inhibited
- infiltration of macrophages into the mural thrombus ([2]; Days 10 and 42): significantly inhibited
- macrophage infiltration into the aneurysmal wall ([2]; Days 10 and 42): did not reach statistical significance; also recorded: no change
- elastic fibers of the media (elastic lamellae area) ([2]; Days 10 and 42, orcein staining): significant preservation
- SMC colonization of the wall ([2]; after 10 or 42 days): did not affect
- density of SMCs within the thrombus ([2]; treatment for 10 days, α-actin staining): did not modify
- SMC colonization of the thrombus ([2]; treatment for 42 days, α-actin staining): significantly improved
